Common to all, as to assay type: in vivo, mice
The test system of assay [1] is microvessels in the endometriotic lesions. In words: Angiogenesis of endometriotic lesions by Cellvizio, microCT and CD31/αSMA immunostaining. Conditions: after 4 weeks. The protocol: (§1) At the end of intervention, functional angiogenesis of the endometriotic lesions (n=8 per group) was monitored by measuring the flow of fluorescence dye in the new microvessels developed in the implants using a Cellvizio® LAB LSU-488 system with a ProFlex Microprobe S1500 (Mauna Kea Technologies, Paris) as previously described (Xu H, et al. Fertil Steril 2011; 96:1021-8.). A total of 10 mg/ml of FITC-Dextran was injected intravenously into each mouse prior to imaging. Total vessel length (μm) and area (μm^2) and functional capillary length (μm^−1) and area density were measured using Cellvizio® LAB Vessel Detection software, and averaged from 4 perpendicular regions of the lesions in replicates. At the same time, apoptotic cells in the lesions were captured by Cellvizio-LAB 488 with a ProFlex MiniO/100 microprobe using Cellvizio® LAB I/C Viewer software (Mauna Kea Technologies). A total of 10 μl of 10 μM YO-PRO®-1 iodide in DSMO was injected into the lesion area.
After live animal imaging, structural angiogenesis in the endometriotic lesions (n=4 per group) was further examined by detecting the Microfil in the new microvessels developed in the implants using a VivaCT 40 μCT system (Scanco Medical, Switzerland) as previously described (Sun M H, et al. J Orthop Res. 2012; 30:137-43.). The mice were sacrificed by cervical dislocation and where immediately perfused with 4% paraformaldehyde and Microfil MV-120 Blue. Three-dimensional microvessel architecture was constructed, and absolute and relative Microfil-filled microvessel volumes were determined using the built-in software.
(§2) Paraffin sections (n=4 per group) were prepared for standard hematoxylin and eosin (H&E) staining, angiogenesis immunostaining and TUNEL staining as previously described (Xu H, et al. Hum Reprod 2009; 24:608-18.). Immunohistochemistry staining of in situ angiogenesis was performed by the immunoperoxidase method using a MACH 3 HRP Polymer Kit (Biocare Medical, Concord), and counterstained using methyl green or blue solution.
Antibodies against mouse CD31 and alpha-smooth muscle actin (αSMA) (Abcam Inc., MA) were used to double fluorescence stain the microvessels developed in the endometriotic lesions, and CD34 (Abeam Inc.) was used to stain the microvessels in the ovaries and uterus. The samples without primary antibodies served as negative controls. The total number of positively stained new and old microvessels in the lesions was counted, respectively. The mean microvessel numbers and sizes were calculated from 5 separated sections from each animal within the treatment group and are presented as numbers per lesion and μm^2 per lesion, respectively.

For assay [2], the system named is apoptotic cells in the endometriotic lesions. In words: Apoptosis in endometriotic lesions by Cellvizio YO-PRO-1 imaging and TUNEL staining. The following applies: after 4 weeks. The method, then: as §1
The total number of apoptotic cells was counted and averaged from the 4 perpendicular regions of the lesions in replicates as described above. Both IVIS and Cellvizio imaging procedures were performed under general anesthesia with isoflurane (Baxter, Ill.), and the mice were observed until fully recovered.
TUNEL labeling for in situ apoptotic cells was performed using an ApopTag Peroxidase In Situ Apoptosis Detection Kit (Temecula, Calif.) according to the manufacturer's instructions. The total numbers of TUNEL-positive stained cells were counted. The mean numbers of apoptotic cells were calculated from 5 separated sections from each animal within the treatment group and are presented as numbers per lesion as above. […] Each section was evaluated by both examiners, who were blinded to the experimental groups and results.

Assay [3] in a line: Oxygen radical absorbance capacity (ORAC) in plasma and lesions. An excerpt: (§3) Pharmacokinetics of EGCG and pro-EGCG in the animals were studied by measuring the corresponding EGCG and pro-EGCG concentrations (EGCG in the EGCG group, pro-EGCG in the pro-EGCG group) in plasma during the intervention and also in lesions at the end of intervention. EGCG and pro-EGCG were quantified by analytical methods as previously described (Lam W H, et al. Bioorg Med Chem. 2004; 510:69-93; Chu K O, et al. J Chromat B 2004; 810:187-95; Chu K O, et al. Anal Chim Acta 2004; 510:69-76). Anti-oxidative and anti-angiogenesis capacities of the samples were also studied by measuring oxygen radical absorbance capacity (ORAC) using a modified phycoerythrin fluorescence decay assay as previously described (Wang C C, et al. Clin Chem 2004; 50:952-4), and vascular endothelial growth factor (VEGF) concentrations were measured using a commercial ELISA kit (Uscn Life Science Inc., TX) according to the manufacturer's manual. Blood samples (n=8 per group) were collected from the tail vein once per week, and plasma was prepared by immediate centrifugation. Implants without subcutaneous and muscle layers (n=4 per group) were removed from the abdominal wall, and the endometriotic lesions were frozen. All of the samples were kept in −80° C. prior to analysis.

Assay [4] has as its system vascular endothelial growth factor (VEGF). Briefly: VEGF concentrations in plasma and lesions by ELISA.
Description: as §3
(An ELISA detects its analyte on a solid surface through an enzyme-linked reagent.)

In assay [5] the test system is endometriotic lesions (experimental endometriosis). In words: Growth of luminescent endometriotic lesions monitored weekly by IVIS bioluminescence imaging. The source says: Based on our previous study, an immune-compromised mouse model of experimental endometriosis was created by subcutaneous transplantation of human or mouse tissues to assess the anti-angiogenic effects and mechanisms of green tea catechin (Xu H, et al. Hum Reprod 2009; 24:608-18; Xu H, et al. Fertil Steril 2011; 96:1021-8).
(§4) In this study, endometrial tissues from eight-week-old female CMV-Luc mice (n=15) were acquired for transplantation into nonluminescent NOD-SCID mice (n=32). The mouse endometrium was obtained during the proliferating estrous stage, and biopsies 2 mm in diameter were obtained with a sterile dermal biopsy punch (Miltex, NY). The biopsies were immediately washed in prewarmed, phenol-red-free DMEM/F-12 medium (Sigma) to remove residual blood and mucus, and the samples were maintained in serum-free DMEM/F-12 medium before transplantation (Bruner-Tran K L, et al. J Clin Endocrinol Metab 2009; 94:2489-94). Cultured endometrial biopsies were randomly allocated for transplantation.
(§5) Five mouse endometrial biopsies per treatment group were implanted into a single subcutaneous pocket created is the abdominal wall of the mice along the ventral midline immediately below the umbilicus. All of the surgical procedures were performed under general anesthesia with isoflurane (Baxter, IL), and the mice were monitored until they fully recovered.
Development and angiogenesis of the experimental endometriosis were monitored using various in vivo imaging systems. During the intervention, growth of the endometriotic lesions (n=8 per group) was monitored each week by measuring the bioluminescence of the subcutaneous luciferase-positive implants using a non-invasive IVIS 200 live animal imaging system (Xenogen) as previously described (Song C, et al. Hum Gene Ther, 2011; 22:439-49). A total of 150 mg/kg of luciferin was injected intraperitoneally […] 10 mins prior to imaging. An image from each animal was captured at bin size 4 in triplicate, and the bioluminescence signal intensities were averaged for comparison.

Assay [6] has the same test system. Briefly: Lesion size, weight and histology at end of intervention. Conditions: after 4 weeks i.p. once per day.
Description: as §4, §5
At the end of intervention, size of the endometriotic lesions was determined as the longest length and perpendicular width according to a venire caliper and was calculated as 0.52×width^2×length in mm^3. The endometrial implants, together with subcutaneous and muscle layers, were removed from the abdomen wall for detailed histological examination and specific staining analysis.
as §2

[7] abbreviates: EGCG, pro-EGCG 50 mg/kg, vitamin E 20 mg/kg.

Consider vitamin E, for which, in assay [1] (Cellvizio, FITC-Dextran), the “functional capillary length, density and area in the lesions compared to saline group” value was “but not vitamin E, significantly inhibited”; the “total vessel length in the lesions compared to saline group” value is “but not vitamin E, significantly inhibited”. Besides, in assay [1] (immunostaining), the “CD31-positively and αSMA-positively stained old microvessel numbers compared to saline group” value is reported as “but not vitamin E, significantly inhibited”. For the same substance, the “vessel volume and density in the lesions compared to saline group” value in assay [1] (microCT, Microfil) was “but not vitamin E, significantly inhibited”. For the same substance, the “total apoptotic cell numbers in the lesions compared to saline group” value in assay [2] was “but not vitamin E significantly increased”. Besides, the “ORAC in endometriotic lesions compared to saline group” value in assay [3] (lesions after intervention) is listed as “significantly increased”. Further, in assay [3] (plasma during intervention), the “ORAC in plasma compared to saline group” value is on record as “significantly increased”. Moreover, the “VEGF concentrations in endometriotic lesions compared to saline group” value in assay [4] (lesions after intervention) is “not significantly different from the saline group”. The “VEGF concentrations in plasma compared to saline group” value in assay [4] (plasma during intervention) is listed as “not significantly different from the saline group”. Further, the “lesion bioluminescence intensity compared with saline group” value in assay [5] (i.p. once per day, 4 weeks, EGCG, pro-EGCG 50 mg/kg, vitamin E 20 mg/kg) is “significantly lower than that of the saline group at the 3rd week”. In assay [5] (vitamin E 20 mg/kg i.p. once per day, 4th week), the “lesion growth (bioluminescence) at the 4th week compared with saline group” value was “returned to normal growth, as in the saline group”. Moreover, in assay [6] (setting [7]), the “lesion size compared to control group” value was “did not significantly decrease” and the “lesion weight compared to control group” value was “did not significantly decrease”. Moreover, in assay [6] (microscopic examination), the “development and histology of the endometriotic lesions” value was “a large cyst-like endometrial gland structure was formed”.

(Values after patent US10188629B2, “Prodrug of green tea epigallocatechin-3-gallate (pro-EGCG) for use in the treatment of endometriosis” (The Hong Kong Polytechnic University, priority 2012, dated 2019).)
